Assays:
Design in all cases: Eurofins SafetyScreen44 radioligand displacement, inhibition of control specific binding
5-HT2B(h) = target: T1, 5-HT2B(h) (Homo sapiens, UniProt P41595); assay: biochemical; conditions: reference compound
T1 construct: gene HTR2B

N neuronal α7 (h) [1] = target: T2, N neuronal α7 (h) (Homo sapiens, UniProt P36544); conditions: reference compound; binder
T2 construct: gene CHRNA7

N neuronal α7 (h) [2] = target: T2, N neuronal α7 (h); conditions: reference compound; binder; remark: listed apart in the source
M5(h) = target: T3, M5(h) (Homo sapiens, UniProt P08912); assay: biochemical; conditions: reference compound
T3 construct: gene CHRM5
T3 sequence (P08912 whole entry): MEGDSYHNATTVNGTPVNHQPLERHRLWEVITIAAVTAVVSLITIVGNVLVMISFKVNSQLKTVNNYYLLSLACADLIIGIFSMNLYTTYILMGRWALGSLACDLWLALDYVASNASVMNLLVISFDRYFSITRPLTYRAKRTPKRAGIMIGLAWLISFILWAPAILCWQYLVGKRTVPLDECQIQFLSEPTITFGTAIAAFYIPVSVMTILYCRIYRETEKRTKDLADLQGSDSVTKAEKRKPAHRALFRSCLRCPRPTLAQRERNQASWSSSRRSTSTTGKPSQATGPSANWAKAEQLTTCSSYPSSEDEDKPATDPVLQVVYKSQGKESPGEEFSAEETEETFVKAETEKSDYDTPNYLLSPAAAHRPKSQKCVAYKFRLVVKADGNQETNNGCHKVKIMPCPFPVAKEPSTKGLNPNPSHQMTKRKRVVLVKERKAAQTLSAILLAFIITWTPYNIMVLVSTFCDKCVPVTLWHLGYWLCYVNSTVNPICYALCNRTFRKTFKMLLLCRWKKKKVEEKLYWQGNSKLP

adrenergic receptor α1A [3] = target: T4, adrenergic receptor α1A (Homo sapiens, UniProt P35348); conditions: reference compound; binder
T4 construct: gene ADRA1A
T4 sequence (P35348 1-466): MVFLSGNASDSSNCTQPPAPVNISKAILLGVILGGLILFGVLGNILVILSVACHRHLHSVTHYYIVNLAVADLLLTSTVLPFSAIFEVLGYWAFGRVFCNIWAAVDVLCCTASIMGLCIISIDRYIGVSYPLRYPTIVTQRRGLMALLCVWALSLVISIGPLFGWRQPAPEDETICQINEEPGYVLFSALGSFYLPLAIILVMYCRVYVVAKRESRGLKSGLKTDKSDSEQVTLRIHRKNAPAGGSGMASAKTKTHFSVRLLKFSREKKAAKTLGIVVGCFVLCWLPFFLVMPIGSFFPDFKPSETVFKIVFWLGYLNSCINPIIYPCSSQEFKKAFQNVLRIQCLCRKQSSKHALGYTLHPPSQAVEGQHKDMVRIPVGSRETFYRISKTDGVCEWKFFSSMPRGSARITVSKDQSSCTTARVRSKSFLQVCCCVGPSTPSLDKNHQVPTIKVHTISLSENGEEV

adrenergic receptor α1A [4] = target: T4, adrenergic receptor α1A; conditions: reference compound; binder; remark: listed apart in the source

T2 sequence (P36544 whole entry): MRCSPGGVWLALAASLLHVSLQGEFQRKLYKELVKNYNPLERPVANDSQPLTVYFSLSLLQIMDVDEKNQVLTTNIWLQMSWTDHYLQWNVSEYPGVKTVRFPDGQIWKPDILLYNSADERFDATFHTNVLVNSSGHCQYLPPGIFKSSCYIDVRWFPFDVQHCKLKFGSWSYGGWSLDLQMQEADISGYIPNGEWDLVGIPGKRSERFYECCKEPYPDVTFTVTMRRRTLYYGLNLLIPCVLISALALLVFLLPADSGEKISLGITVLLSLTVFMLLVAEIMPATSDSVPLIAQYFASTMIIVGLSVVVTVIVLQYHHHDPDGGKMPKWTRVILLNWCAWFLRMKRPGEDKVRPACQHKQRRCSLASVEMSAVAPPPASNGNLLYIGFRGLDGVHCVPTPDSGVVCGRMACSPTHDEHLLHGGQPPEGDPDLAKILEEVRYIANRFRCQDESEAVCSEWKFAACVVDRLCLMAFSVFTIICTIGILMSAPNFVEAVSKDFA
T1 sequence (P41595 whole entry): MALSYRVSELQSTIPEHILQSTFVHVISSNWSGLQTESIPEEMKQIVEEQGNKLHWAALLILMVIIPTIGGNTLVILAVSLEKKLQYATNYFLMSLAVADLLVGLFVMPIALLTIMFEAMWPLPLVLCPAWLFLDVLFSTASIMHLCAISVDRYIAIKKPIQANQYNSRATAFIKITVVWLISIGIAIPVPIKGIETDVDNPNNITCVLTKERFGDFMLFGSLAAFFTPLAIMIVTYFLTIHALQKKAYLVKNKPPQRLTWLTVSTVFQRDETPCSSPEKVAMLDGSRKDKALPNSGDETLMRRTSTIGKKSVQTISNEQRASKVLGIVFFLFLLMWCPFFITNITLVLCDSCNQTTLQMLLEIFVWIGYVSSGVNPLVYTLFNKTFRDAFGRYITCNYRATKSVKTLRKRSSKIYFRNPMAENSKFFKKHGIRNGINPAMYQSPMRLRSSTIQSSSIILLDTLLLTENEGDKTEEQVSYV

For `COc1cc(CC(C)N)c(OC)cc1I` (racemic) [(±)DOI], the Ki (5-HT2B(h)) was 1.8 nM.

`Clc1ccc(C2CC3CCC2N3)cn1` (racemic) [(±)epibatidine] showed an IC50 (N neuronal α7 (h) [1]) of 86 nM and a Ki (N neuronal α7 (h) [2]) of 75 nM.

With `C[N+]1(C)CCC(OC(=O)C(c2ccccc2)c2ccccc2)CC1` [4-DAMP] the Ki (M5(h)) was 0.5 nM.

Compound `COc1cccc(OC)c1OCCNCC1COc2ccccc2O1` (stereo not drawn) [WB 4101] has an IC50 (adrenergic receptor α1A [3]) of 0.61 nM and a Ki (adrenergic receptor α1A [4]) of 0.3 nM.

— publication PMC8120209, “Longitudinal evaluation of a novel BChE PET tracer as an early in vivo biomarker in the brain of a mouse model for Alzheimer disease” (Theranostics, 2021)
